Results as given in ChEMBL document CHEMBL2346556, “Synthesis, receptor binding and activity of iso and azakainoids” (Bioorg Med Chem Lett, 2013).
Calls of active or inactive are those of the source. The calls are words filed in the database; no cut-off is given here.

Experiments:
Rattus norvegicus [1] = species: Rattus norvegicus; assay: Displacement of [3H]AMPA from rat brain unspecified glutamate receptor by competitive binding assay
Rattus norvegicus [2] = species: Rattus norvegicus; assay: (§1) Displacement of [3H]glutamic acid from rat brain unspecified glutamate receptor by competitive binding assay
Rattus norvegicus [3] = species: Rattus norvegicus; assay: Displacement of [3H]kainic acid from rat brain unspecified glutamate receptor by competitive binding assay
Rattus norvegicus [4] = species: Rattus norvegicus; assay: Displacement of [3H]NMDA from rat brain unspecified glutamate receptor by competitive binding assay
Aplysia californica [5] = assay: Agonist activity at glutamate receptor in Aplysia californica buccal S cluster neurons assessed as receptor non-desensitization at 30 mV holding potential at 1 mM by patch clamp technique
Aplysia californica [6] = assay: Agonist activity at glutamate receptor in Aplysia californica buccal S cluster neurons assessed as membrane depolarization at 1 mM by patch clamp technique
[7] = as §1

Structure (SMILES)	Activity (Rattus norvegicus [1])	Activity (Rattus norvegicus [2])	Activity (Rattus norvegicus [3])	Activity (Rattus norvegicus [4])	Activity (Aplysia californica [5])	Activity (Aplysia californica [6])	EC50 [7] [µM]
O=C(O)C[C@H]1CNC[C@@H]1C(=O)O (relative stereo)	inactive	inactive	inactive	inactive	–	–	–
O=C(O)C[C@H]1CNN[C@@H]1C(=O)O (relative stereo)	inactive	–	inactive	inactive	Active	Active	12
O=C(O)C[C@H]1CCN[C@@H]1C(=O)O (relative stereo)	inactive	inactive	inactive	inactive	–	–	–
